Assay results as given in US11034695B2, “Dopamine-β-hydroxylase inhibitors” (BIAL—PORTELA & Ca, S.A., priority 2016, dated 2021).

What follows are compounds tested against T1, Dopamine beta hydroxylase activity in human plasma (Homo sapiens, UniProt P09172) (assay: DβH activity in human plasma). Details: 0.1 μM inhibitor; human plasma; numbers in brackets; read-out: DβH activity in % of Ctrl (0.1 μM), human plasma assay.
T1 construct: 125 μl of plasma (or saline for blank reaction or standard curve); tissue Instituto Português do Sangue Transplantação; host or cells: human plasma from healthy donors
T1 sequence (P09172 40-617 limits assumed): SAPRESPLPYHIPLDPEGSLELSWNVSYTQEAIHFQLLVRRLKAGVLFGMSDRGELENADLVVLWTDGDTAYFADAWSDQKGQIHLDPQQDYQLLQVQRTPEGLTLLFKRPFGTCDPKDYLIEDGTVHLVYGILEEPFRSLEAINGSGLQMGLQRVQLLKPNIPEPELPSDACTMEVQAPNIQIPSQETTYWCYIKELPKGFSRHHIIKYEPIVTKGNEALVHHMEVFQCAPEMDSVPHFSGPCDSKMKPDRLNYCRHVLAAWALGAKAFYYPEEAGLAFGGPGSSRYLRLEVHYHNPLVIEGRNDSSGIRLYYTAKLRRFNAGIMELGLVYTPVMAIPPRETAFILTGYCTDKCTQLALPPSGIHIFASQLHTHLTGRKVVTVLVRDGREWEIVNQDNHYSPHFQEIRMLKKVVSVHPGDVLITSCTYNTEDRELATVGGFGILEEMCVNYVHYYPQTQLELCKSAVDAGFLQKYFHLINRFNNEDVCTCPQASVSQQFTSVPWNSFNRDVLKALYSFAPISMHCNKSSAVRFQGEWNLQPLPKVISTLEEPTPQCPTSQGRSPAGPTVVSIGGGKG
Assay type: biochemical
Experimental: Furthermore, the ability of a compound to inhibit DβH activity may be assessed in human plasma using the following assay. […]. Dopamine beta hydroxylase activity in human plasma was measured by the method previously developed (Nagatsu, T. and Udenfriend, S. Photometric assay of dopamine-β-hydroxylase activity in human blood. Clin. Chem. 18(9) 980-983, 1972) with minor modifications. Catalase, N-ethylmaleimide, tyramine, disodium fumarate, pargyline, sodium acetate, ascorbic acid, copper sulfate and octopamine were obtained from Sigma Chemical Co., St. Louis, Mo. 63178. Human plasma samples were obtained from healthy donors (Instituto Português do Sangue Transplantação, Centro Sangue Transplantação, Porto, Portugal). From date of collection, plasma was stored at −80° C. until use. Test compounds were initially prepared in dimethyl sulfoxide at a concentration of 10 mM and diluted in dimethyl sulfoxide to the required concentrations. Test compounds were further diluted in ultrapure water to a concentration 20-fold to that of the final concentration to be tested. Final concentrations of test compounds were 10, 100 and 1000 nM. The various reagents used to make up the incubation buffer were premixed and consisted of the following components: sodium acetate buffer (1 M, pH 5.0, 18 ml), sodium fumarate (0.2 M, 4.5 ml), ascorbic acid (0.2 M, 4.5 ml, freshly prepared), pargyline (20 mM, freshly prepared, 4.5 ml), N-ethylmaleimide (0.2 M, 4.5 ml), catalase (10 000 U/ml, 9 ml), copper sulfate (20 μM, 4.5 ml) and 4.5 ultrapure water. The standard incubation mixture (total volume, 950 μl) contained: 50 μL of compound or vehicle (dimethyl sulfoxide 2%); 700 μL of incubation buffer; 125 μl of plasma (or saline for blank reaction or standard curve); 75 μl of saline. The reaction mixture was placed in water bath, shaking at 37° C. and pre-incubated for 10 minutes. Tyramine (0.5 M) was added and incubation proceeded for 45 minutes. The reaction contents were exposed to air. A sample of enzyme preparation (with 125 μl of plasma) that had been added perchloric acid 2 M at the end of the pre-incubation period was used as blank. A blank for each of the tested compounds was used. For octopamine standard curve, perchloric acid 2 M was replaced by increasing concentrations of octopamine prepared in perchloric acid 2 M (0.5, 1, 2.5, 5, 7.5, 10, 15, 20 μg/ml, final concentration). The incubation was stopped by adding 200 μl of 2 M molar perchloric acid, and the mixture was centrifuged at 9000 g for 5 min. The supernatant fluid (800 μL) was transferred to a column (SPE cartridge ISOLUTE SCX-3, 100 mg) and centrifuged at 150 g for 2 min. The column was washed two more times with 0.5 ml of ultrapure water by centrifuging at 150 g for 2 min. The adsorbed octopamine was eluted twice with 0.3 ml of 4 M ammonium hydroxide by centrifuging at 150 g for 2 min. Octopamine in the eluate was then converted to p-hydroxybenzaldehyde by adding 200 μl of sodium periodate (2%) and incubating for 6 min. Excess periodate was than reduced by adding 200 μl of sodium metabisulfite (10%). Absorbance was measured at […] in a 96-well plate by use of a SpectraMAX plus 384 (Molecular Devices) with software SOFTmax® PRO Software 5.3 spectrophotometer. Absorbance was linear with octopamine concentration from 0.5 to 20 μg/ml. Dopamine beta hydroxylase activity is determined as nmol of octopamine formed/ml of plasma/hour and effect of compounds is presented as % control.
Results are reported in the table below (inside brackets) as activity in % of control at the inhibitor concentration tested.

Compared with Cc1[nH]c(=S)n2c1C[C@@H](c1cc(Br)ccc1F)C2 [Example 19, (S)-6-(5-bromo-2-fluorophenyl)-1-methyl-2,5,6,7-tetrahydro-3H-pyrrolo[1,2-c]imidazole-3-thione], Cc1[nH]c(=S)n2c1C[C@H](c1cc(Br)ccc1F)C2 [Example 21, (R)-6-(5-bromo-2-fluorophenyl)-1-methyl-2,5,6,7-tetrahydro-3H-pyrrolo[1,2-c]imidazole-3-thione] is higher in remaining activity at 0.1 µM: 39.1% for the first, 88.8% for the second.

First: Cc1[nH]c(=S)n2c1C[C@H](c1c(F)ccc(F)c1F)C2 [Example 20, (R)-1-methyl-6-(2,3,6-trifluorophenyl)-6,7-dihydro-2H-pyrrolo[1,2-c]imidazole-3(5H)-thione]
Second: Cc1[nH]c(=S)n2c1C[C@@H](c1c(F)ccc(Br)c1F)C2 [Example 16, (S)-6-(3-bromo-2,6-difluorophenyl)-1-methyl-2,5,6,7-tetrahydro-3H-pyrrolo[1,2-c]imidazole-3-thione]
The remaining activity at 0.1 µM of the first is higher: 27.7% for the first, 12.1% for the second.

Compared with Cc1[nH]c(=S)n2c1[C@@H]1C[C@]1(c1cc(F)cc(Cl)c1)C2 [Example 17, (5aS,6aR)-5a-(3-chloro-5-fluorophenyl)-1-methyl-5,5a,6,6a-tetrahydrocyclopropa[3,4]pyrrolo[1,2-c]imidazole-3(2H)-thione], Cc1[nH]c(=S)n2c1[C@@H]1C[C@]1(c1cc(Cl)ccc1F)C2 [Example 8, (5aS,6aR)-5a-(5-chloro-2-fluorophenyl)-1-methyl-5,5a,6,6a-tetrahydrocyclopropa[3,4]pyrrolo[1,2-c]imidazole-3(2H)-thione] is lower in remaining activity at 0.1 µM: 49.9% for the first, 38.3% for the second.

Compared with Cc1[nH]c(=S)n2c1[C@@H]1C[C@]1(c1c(F)ccc(Cl)c1F)C2 [Example 14, (5aS,6aR)-5a-(3-chloro-2,6-difluorophenyl)-1-methyl-5,5a,6,6a-tetrahydrocyclopropa[3,4]pyrrolo[1,2-c]imidazole-3(2H)-thione], [2H]C([2H])([2H])c1[nH]c(=S)n2c1[C@@H]1C[C@]1(c1cc(Br)ccc1F)C2 [Example 18, (5aS,6aR)-5a-(5-bromo-2-fluorophenyl)-1-(methyl-d3)-5,5a,6,6a-tetrahydrocyclopropa[3,4]pyrrolo[1,2-c]imidazole-3(2H)-thione] is higher in remaining activity at 0.1 µM: 4.7% for the first, 10% for the second.

First: Cc1[nH]c(=S)n2c1C[C@@H](c1cc(Cl)ccc1F)C2 [Example 23, (S)-6-(5-chloro-2-fluorophenyl)-1-methyl-2,5,6,7-tetrahydro-3H-pyrrolo[1,2-c]imidazole-3-thione]
Second: Cc1[nH]c(=S)n2c1C[C@H](c1c(F)cccc1F)C2 [Example 22, (R)-6-(2,6-difluorophenyl)-1-methyl-2,5,6,7-tetrahydro-3H-pyrrolo[1,2-c]imidazole-3-thione]
The remaining activity at 0.1 µM of the first is higher: 67% for the first, 0.5% for the second.

Going from Cc1[nH]c(=S)n2c1C[C@@H](c1c(F)c(F)cc(F)c1F)C2 [Example 6, (S)-1-methyl-6-(2,3,5,6-tetrafluorophenyl)-2,5,6,7-tetrahydro-3H-pyrrolo[1,2-c]imidazole-3-thione] to Cc1[nH]c(=S)n2c1C[C@H](c1c(F)c(F)cc(F)c1F)C2 [Example 5, (R)-1-methyl-6-(2,3,5,6-tetrafluorophenyl)-2,5,6,7-tetrahydro-3H-pyrrolo[1,2-c]-imidazole-3-thione], the remaining activity at 0.1 µM falls from 74.1% to 57.3%.

Cc1[nH]c(=S)n2c1C[C@H](c1c(F)ccc(Br)c1F)C2 [Example 15, (R)-6-(3-bromo-2,6-difluorophenyl)-1-methyl-2,5,6,7-tetrahydro-3H-pyrrolo[1,2-c]imidazole-3-thione] showed a remaining activity at 0.1 µM of 23.8%.

Same assay, conditions: read-out: DβH activity in % of Ctrl (0.1 μM), human plasma assay

Cc1[nH]c(=S)n2c1[C@@H]1C[C@]1(c1cc(Br)ccc1F)C2 [Example 13, (5aS,6aR)-5a-(5-bromo-2-fluorophenyl)-1-methyl-5,5a,6,6a-tetrahydrocyclopropa[3,4]pyrrolo[1,2-c]imidazole-3(2H)-thione] gave a remaining activity at 0.1 µM of 9.8%.
